In PMC9466626, “Discovery of new 1H-pyrazolo[3,4-d]pyrimidine derivatives as anticancer agents targeting EGFR^WT and EGFR^T790M” (Journal of Enzyme Inhibition and Medicinal Chemistry, 2022):
Where two headings read alike, the source gives them in different places.

Legend:
[1] = system: A549; assay: In vitro anti-proliferative MTT assay, A549; type: cell-based, human; settings: for IC50: Homo sapiens; for HillSlope (best-fit value), A549 / LogIC50 (best-fit value), A549: supplement IC50 graph
Experimental: These two cell lines were selected in this test due to the overexpression of EGFR in human lung and colon cancer cell lines[48]^,[49]. The tested cells were reported to have a high expression level of EGFR. […]
(§1) 1.1. In vitro antiproliferative activities
The in vitro antiproliferative activities of all the synthesized compounds against two human […]
evaluated quantitatively as described in the literature, using MTT assay protocol . two […]
proliferative activity was assessed quantitatively as follows.
(§2) Human cancer cell lines were dropped in 96 -well plates at a density of 3-8 × 10^3 cells/well.
Next, the wells were incubated for 12 h in a 5% CO 2 incubator at 37 °C. Then, for each well, the growth medium was exchanged with 0.1 ml of fresh medium containing graded concentrations of the test compounds to be or equal DMSO and incubated for two days. Then 10 μl MTT solution ([…]) was added to each well, and the cells were incubated for additional 4 h. The crystals of MTT-formazan were dissolved in 100 μl of DMSO; the absorbance of each well was measured at 490 nm using an automatic ELISA reader system (TECAN, CHE). The IC 50 values were calculated using the nonlinear regression fitting models (Graph Pad, Prism Version 5). The data represented the mean of three independent experiments in triplicate and were expressed as means ± SD. The […]
(§3) The results were expressed as growth inhibitory concentration (IC50) values and […]

[2] = system: HCT-116; assay: In vitro anti-proliferative MTT assay, HCT-116; type: cell-based, human; settings: for IC50: Homo sapiens, HCT-116, mean of three experiments, read-out: In vitro cytotoxicity IC50, HCT-116; for IC50 / anti-proliferative activity against HCT-116 in words: MTT; for HillSlope (best-fit value), HCT-116 / LogIC50 (best-fit value), HCT-116: supplement IC50 graph
Experimental: The cytotoxic activities of the synthesised compounds were assessed against two human cancer cell lines (lung, A549) and (colon HCT-116) using an MTT assay. These two cell lines were selected in this test due to the overexpression of EGFR in human lung and colon cancer cell lines[48]^,[49]. The tested cells were reported to have a high expression level of EGFR.
In vitro cytotoxicity was carried out for the synthesised compounds against A549, HCT-116, and WI-38 cell lines using the MTT assay protocol[52–55] as described in Supplementary data. […]
as §1
The in vitro antiproliferative activities of all the synthesized compounds against two human tumor cell lines namely, (lung, A549) and (colon HCT-116) and one normal cell line (WI-38) were evaluated quantitatively as described in the literature, using MTT assay protocol . two commercially available drugs (erlotinib) were used in this test as positive controls. The anti-proliferative activity was assessed quantitatively as follows.
as §2
Next, the wells were incubated for 12 h in a 5% CO 2 incubator at 37 °C. Then, for each well, the growth medium was exchanged with 0.1 ml of fresh medium containing graded concentrations of the test compounds to be or equal DMSO and incubated for two days. Then 10 μl MTT solution ([…]) was added to each well, and the cells were incubated for additional 4 h. The crystals of MTT-formazan were dissolved in 100 μl of DMSO; the absorbance of each well was measured at 490 nm using an automatic ELISA reader system (TECAN, CHE). The IC 50 values were calculated using the nonlinear regression fitting models (Graph Pad, Prism Version 5). The data represented the mean of three independent experiments in triplicate and were expressed as means ± SD. The IC50 value was defined as the concentration at which 50% of the cells could survive.
as §3

[3] = target: T1, EGFR^WT (Homo sapiens, UniProt P00533); assay: EGFR^WT kinase inhibitory assay (HTRF); type: biochemical
T1 construct: purchased Sigma
T1 sequence (P00533 25-1210): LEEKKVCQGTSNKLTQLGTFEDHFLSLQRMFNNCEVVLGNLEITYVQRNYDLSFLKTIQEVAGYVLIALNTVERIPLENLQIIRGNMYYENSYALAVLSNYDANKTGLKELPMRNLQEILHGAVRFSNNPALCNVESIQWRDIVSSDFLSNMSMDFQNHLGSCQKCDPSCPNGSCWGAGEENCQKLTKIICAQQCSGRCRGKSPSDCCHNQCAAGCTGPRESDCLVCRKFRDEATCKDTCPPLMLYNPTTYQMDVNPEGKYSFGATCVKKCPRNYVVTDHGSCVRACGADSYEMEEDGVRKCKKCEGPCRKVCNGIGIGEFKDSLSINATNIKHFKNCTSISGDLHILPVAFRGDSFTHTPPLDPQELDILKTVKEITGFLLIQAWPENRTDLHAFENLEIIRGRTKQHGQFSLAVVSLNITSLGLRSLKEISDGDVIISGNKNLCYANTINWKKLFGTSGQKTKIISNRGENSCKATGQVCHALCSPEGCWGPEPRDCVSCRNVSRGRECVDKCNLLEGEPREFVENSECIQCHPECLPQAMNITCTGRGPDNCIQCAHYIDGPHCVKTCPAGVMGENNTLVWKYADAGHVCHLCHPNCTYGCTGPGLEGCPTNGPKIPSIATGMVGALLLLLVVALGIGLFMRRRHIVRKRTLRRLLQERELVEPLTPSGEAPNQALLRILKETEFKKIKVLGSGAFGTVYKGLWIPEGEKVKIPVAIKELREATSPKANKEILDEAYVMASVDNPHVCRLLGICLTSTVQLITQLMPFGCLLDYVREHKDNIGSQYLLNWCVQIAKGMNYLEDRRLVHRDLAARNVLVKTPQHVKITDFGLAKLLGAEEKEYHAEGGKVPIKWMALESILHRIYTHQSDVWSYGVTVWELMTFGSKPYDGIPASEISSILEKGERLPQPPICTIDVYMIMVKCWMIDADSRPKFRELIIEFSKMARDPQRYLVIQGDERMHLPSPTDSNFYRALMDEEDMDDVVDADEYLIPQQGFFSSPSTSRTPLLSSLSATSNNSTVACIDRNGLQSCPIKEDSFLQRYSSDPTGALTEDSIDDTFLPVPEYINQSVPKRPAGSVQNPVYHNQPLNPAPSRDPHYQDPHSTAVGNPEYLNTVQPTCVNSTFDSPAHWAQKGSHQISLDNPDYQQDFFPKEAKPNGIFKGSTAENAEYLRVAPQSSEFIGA
Experimental: In vitro EGFR inhibitory activity was assessed using a Homogeneous time-resolved fluorescence (HTRF) assay[56] as described in Supplementary data.
4.1.1. EGFRWT and EGFRT790M kinase inhibitory assay […]
against four cancer cell lines were further examined for their inhibitory activities against both […]
Homogeneous time resolved fluorescence (HTRF) assay was applied in this test. EGFRWT, EGFRT790M (Sigma). firstly, the EGFRWT and/or EGFRT790M and their substrates were incubated with the tested compounds in enzymatic buffer for 5 min. […]
the enzymatic reaction. The assay was conducted for 30 min at room temperature. The reaction was stopped by addition of detection reagents which contain EDTA. The detection step continued […]
experiments were performed for each concentration. […]

[4] = in vitro; settings: human, WI-38 normal cells
Experimental: (§4) Next, the wells were incubated for 12 h in a 5% CO 2 incubator at 37 °C. Then, for each well, the growth medium was exchanged with 0.1 ml of fresh medium containing graded concentrations of the test compounds to be or equal DMSO and incubated for two days. Then 10 μl MTT solution (5 μg/ml) was added to each well, and the cells were incubated for additional 4 h. The crystals of MTT-formazan were dissolved in 100 μl of DMSO; the absorbance of each well was measured at 490 nm using an automatic ELISA reader system (TECAN, CHE). The IC 50 values were calculated using the nonlinear regression fitting models (Graph Pad, Prism Version 5). The data represented the mean of three independent experiments in triplicate and were expressed as means ± SD.

[5] = system: WI-38; assay: In vitro cytotoxicity against normal cells (MTT), WI-38; settings: supplement graph
Experimental: as §4

[6] = A549, MTT, mean of three experiments, read-out: In vitro cytotoxicity IC50, A549
[7] = HTRF, mean of three experiments, read-out: EGFR^WT IC50
[8] = supplement graph, axis Log (nM)
[9] = supplement graph, axis Log (nM), read-out: IC50 (best-fit value of graph), EGFR inhibition

SMILES	IC50 [1, 6]	HillSlope (best-fit value), A549 [1]	LogIC50 (best-fit value), A549 [1]	IC50 [2]	anti-proliferative activity against HCT-116 in words [2]	HillSlope (best-fit value), HCT-116 [2]	LogIC50 (best-fit value), HCT-116 [2]	IC50 [3, 7]	HillSlope (best-fit value), EGFR inhibition ([3]; supplement graph)	LogIC50 (best-fit value), EGFR inhibition [3, 8]	IC50 [3, 9]	IC50 ([1]; A549, read-out: IC50 (best-fit value of graph), A549)	IC50 at 2 days [4]	HillSlope (best-fit value), WI-38 [5]	LogIC50 (best-fit value), WI-38 [5]
CCNc1nc(Nc2ccccc2)nc2c1cnn2-c1ccccc1 [Compound 7a, N4-Ethyl-N6,1-diphenyl-1H-pyrazolo[3,4-d]pyrimidine-4,6-diamine]	64.4 µM	-0.4567	1.809	29.6 µM	moderate	-0.4339	1.472	–	–	–	–	–	–	–	–
CCCNc1nc(Nc2ccccc2)nc2c1cnn2-c1ccccc1 [Compound 7b, N4-Propyl-N6,1-diphenyl-1H-pyrazolo[3,4-d]pyrimidine-4,6-diamine]	67.4 µM	-0.4700	1.829	31.5 µM	moderate	-0.4549	1.498	–	–	–	–	–	–	–	–
c1ccc(Nc2nc(Nc3ccccc3)c3cnn(-c4ccccc4)c3n2)cc1 [Compound 8, N4,N6,1-Triphenyl-1H-pyrazolo[3,4-d]pyrimidine-4,6-diamine]	16.8 µM	-0.3605	1.224	24.2 µM	–	-0.4231	1.383	26 nM	-0.3385	1.415	26 nM	–	–	–	–
c1ccc(Nc2nc(NC3CCCCC3)c3cnn(-c4ccccc4)c3n2)cc1 [Compound 9, N4-Cyclohexyl-N6,1-diphenyl-1H-pyrazolo[3,4-d]pyrimidine-4,6-diamine]	29.1 µM	-0.3708	1.463	39.4 µM	–	-0.3946	1.595	–	–	–	–	–	–	–	–
NNc1nc(Nc2ccccc2)nc2c1cnn2-c1ccccc1 [Compound 10, 4-Hydrazinyl-N,1-diphenyl-1H-pyrazolo[3,4-d]pyrimidin-6-amine]	15.7 µM	-0.3765	1.195	18.8 µM	–	-0.3276	1.274	23 nM	-0.3619	1.366	23.2 nM	–	–	–	–
COc1ccc(C=NNc2nc(Nc3ccccc3)nc3c2cnn3-c2ccccc2)cc1 [Compound 11a, 4–(2-(4-Methoxybenzylidene)hydrazinyl)-N,1-diphenyl-1H-pyrazolo[3,4-d] pyrimidin-6-amine]	47.7 µM	-0.4514	1.678	46.2 µM	–	-0.4760	1.664	–	–	–	–	–	–	–	–
Clc1ccc(C=NNc2nc(Nc3ccccc3)nc3c2cnn3-c2ccccc2)cc1 [Compound 11b, 4–(2-(4-Chlorobenzylidene)hydrazinyl)-N,1-diphenyl-1H-pyrazolo[3,4-d]pyrimidin-6-amine]	75.7 µM	-0.3813	1.879	75.1 µM	–	-0.5652	1.876	–	–	–	–	–	–	–	–
CC(=NNc1nc(Nc2ccccc2)nc2c1cnn2-c1ccccc1)c1ccccc1 [Compound 12a, N,1-Diphenyl-4–(2-(1-phenylethylidene)hydrazinyl)-1H-pyrazolo[3,4-d]pyrimidin-6-amine]	13.7 µM	-0.3395	1.137	23.3 µM	–	-0.4063	1.368	21 nM	-0.3296	1.321	21 nM	–	–	–	–
CC(=NNc1nc(Nc2ccccc2)nc2c1cnn2-c1ccccc1)c1ccc(C)cc1 [Compound 12c, N,1-Diphenyl-4–(2-(1-(p-tolyl)ethylidene)hydrazinyl)-1H-pyrazolo [3,4-d] pyrimidin-6-amine]	28.8 µM	-0.4080	1.459	28.7 µM	moderate	-0.4467	1.458	–	–	–	–	–	–	–	–
CCNC(=S)NNc1nc(Nc2ccccc2)nc2c1cnn2-c1ccccc1 [Compound 13a, N-Ethyl-2–(1-phenyl-6-(phenylamino)-1H-pyrazolo[3,4-d]pyrimidin-4-yl) hydrazine-1-carbothioamide]	43.1 µM	-0.4011	1.635	27 µM	moderate	-0.4156	1.432	–	–	–	–	–	–	–	–
CCCNC(=S)NNc1nc(Nc2ccccc2)nc2c1cnn2-c1ccccc1 [Compound 13b, 2–(1-Phenyl-6-(phenylamino)-1H-pyrazolo[3,4-d]pyrimidin-4-yl)-N-propyl hydrazine-1-carbothioamide]	15.4 µM	-0.3921	1.186	36.4 µM	–	-0.3703	1.562	–	–	–	–	–	–	–	–
C#Cc1cccc(Nc2ncnc3cc(OCCOC)c(OCCOC)cc23)c1 [Erlotinib, reference compound]	6.77 µM	-0.3354	0.8309	19.2 µM	–	-0.3370	1.284	–	–	–	–	6.78 µM	33.8 µM	-0.4750	1.528
